# In ChEMBL document CHEMBL5584293, “Discovery and evaluation of novel spiroheterocyclic protective agents via a SIRT1 upregulation mechanism in cisplatin-induced premature ovarian failure” (Bioorg Med Chem, 2024):
# The source made the active and inactive calls. The calls are words filed in the database; no cut-off is given here.
# Tests used:
# KGN [1] = experiment: Protective effect against cisplatin-induced injury in human KGN cells assessed as cell survival at 5 uM incubated for 48 hrs by MTT assay; format: functional, cell-based
# [2] = Cytotoxicity against human PDL cells assessed as cell viability at 50 uM incubated for 48 hrs by MTT assay; format: toxicity, cell-based
# [3] = Cytotoxicity against human MIHA cells assessed as cell viability at 50 uM incubated for 48 hrs by MTT assay; format: toxicity, cell-based
# NRK = experiment: Cytotoxicity against rat NRK cells assessed as cell viability at 50 uM incubated for 48 hrs by MTT assay; format: toxicity, cell-based
# KGN [4] = experiment: Protective effect against cisplatin-induced injury in human KGN cells assessed as cell survival at 25 to 50 uM incubated for 48 hrs by MTT assay; format: functional, cell-based; conditions: dose 25-50 µM
compound,measurement,setting,value
CC1N[C@@]2(C(=O)c3cccc4cccc2c34)[C@@]2(CCC/C(=C\c3ccccc3Br)C2=O)[C@H]1c1ccccc1Br (stereo not given in full),Activity,KGN [1],Active
Cc1ccc(/C=C2\CCC[C@@]3(C2=O)[C@@H](c2ccc(C)s2)C(C)N[C@@]32C(=O)c3cccc4cccc2c34)s1 (stereo not given in full),Activity,KGN [1],Active
N=C(N)NCCCC1N[C@@]2(C(=O)c3cccc4cccc2c34)[C@@]2(CCC/C(=C\c3ccccc3)C2=O)[C@H]1c1ccccc1 (stereo not given in full),Activity,KGN [1],inactive
CC1N[C@@]2(C(=O)c3cccc4cccc2c34)[C@@]2(CCC/C(=C\c3cccc(O)c3)C2=O)[C@H]1c1cccc(O)c1 (stereo not given in full),Activity,KGN [1],inactive
CC1N[C@@]2(C(=O)c3cccc4cccc2c34)[C@@]2(CCC/C(=C\c3ccc(O)c(O)c3)C2=O)[C@H]1c1ccc(O)c(O)c1 (stereo not given in full),Activity,KGN [1],inactive
CN1C[C@H](c2ccccc2)[C@]2(CN(C(=O)OC(C)(C)C)C/C(=C\c3ccccc3)C2=O)[C@]12C(=O)Nc1ccccc12,Activity,[2],Non-Toxic
same,Activity,[3],Non-Toxic
same,Activity,NRK,Non-Toxic
CC(C)C1N[C@@]2(C(=O)c3cccc4cccc2c34)[C@@]2(CCC/C(=C\c3ccccc3)C2=O)[C@H]1c1ccccc1 (stereo not given in full),Activity,KGN [1],inactive
O=C1c2cccc3cccc(c23)[C@]12NC(Cc1c[nH]c3ccccc13)[C@H](c1ccccc1)[C@]21CCC/C(=C\c2ccccc2)C1=O (stereo not given in full),Activity,KGN [1],Active
CN1C[C@H](c2ccccc2)[C@]2(CN(C(=O)OC(C)(C)C)C/C(=C\c3ccccc3)C2=O)[C@]12C(=O)Nc1ccc(F)cc12,Activity,[2],Non-Toxic
same,Activity,[3],Non-Toxic
same,Activity,NRK,Non-Toxic
"CN1C[C@H](c2ccccc2)C2(CN(C(=O)OC(C)(C)C)C/C(=C\c3ccccc3)C2=O)[C@]12C(=O)c1cccc3cccc2c13 (single isomer, unassigned)",Activity,[2],Non-Toxic
same,Activity,[3],Non-Toxic
same,Activity,NRK,Non-Toxic
COc1ccc(/C=C2\CCC[C@@]3(C2=O)[C@@H](c2ccc(OC)cc2OC)C(C)N[C@@]32C(=O)c3cccc4cccc2c34)c(OC)c1 (stereo not given in full),Activity,KGN [1],inactive
O=C1c2cccc3cccc(c23)[C@]12N1CCC(O)C1[C@H](c1ccccc1)[C@]21CCC/C(=C\c2ccccc2)C1=O (stereo not given in full),Activity,KGN [1],Active
O=C(O)CCC1N[C@@]2(C(=O)c3cccc4cccc2c34)[C@@]2(CCC/C(=C\c3ccccc3)C2=O)[C@H]1c1ccccc1 (stereo not given in full),Activity,KGN [1],inactive
CC1N[C@@]2(C(=O)c3cccc4cccc2c34)[C@@]2(CCC/C(=C\c3ccc4ccccc4c3)C2=O)[C@H]1c1ccc2ccccc2c1 (stereo not given in full),Activity,KGN [1],Active
O=C1c2cccc3cccc(c23)[C@]12NC(Cc1c[nH]cn1)[C@H](c1ccccc1)[C@]21CCC/C(=C\c2ccccc2)C1=O (stereo not given in full),Activity,KGN [1],inactive
CN1C[C@H](c2ccccc2)[C@]2(CCC/C(=C\c3ccccc3)C2=O)[C@]12C(=O)Nc1ccccc12,Activity,[2],Non-Toxic
same,Activity,[3],Non-Toxic
same,Activity,NRK,Non-Toxic
COc1cc(/C=C2\CCC[C@@]3(C2=O)[C@@H](c2ccc(O)c(OC)c2)C(C)N[C@@]32C(=O)c3cccc4cccc2c34)ccc1O (stereo not given in full),Activity,KGN [1],inactive
CN1C[C@H](c2ccccc2)[C@H](C(=O)/C=C/c2ccccc2)[C@]12C(=O)Nc1ccc(Cl)cc12,Activity,[2],Toxic
same,Activity,[3],Toxic
same,Activity,NRK,Toxic
CC1N[C@@]2(C(=O)c3cccc4cccc2c34)[C@@]2(CCC/C(=C\c3ccccc3C(F)(F)F)C2=O)[C@H]1c1ccccc1C(F)(F)F (stereo not given in full),Activity,KGN [1],inactive
NC(=O)CC1N[C@@]2(C(=O)c3cccc4cccc2c34)[C@@]2(CCC/C(=C\c3ccccc3)C2=O)[C@H]1c1ccccc1 (stereo not given in full),Activity,KGN [1],Active
O=C1c2cccc3cccc(c23)[C@]12NC(Cc1ccc(O)cc1)[C@H](c1ccccc1)[C@]21CCC/C(=C\c2ccccc2)C1=O (stereo not given in full),Activity,KGN [1],inactive
CC1N[C@@]2(C(=O)c3cccc4cccc2c34)[C@@]2(CCC/C(=C\c3ccccc3F)C2=O)[C@H]1c1ccccc1F (stereo not given in full),Activity,KGN [1],Active
same,Activity,KGN [4],Active
CCC(C)C1N[C@@]2(C(=O)c3cccc4cccc2c34)[C@@]2(CCC/C(=C\c3ccccc3)C2=O)[C@H]1c1ccccc1 (stereo not given in full),Activity,KGN [1],inactive
CC1N[C@@]2(C(=O)c3cccc4cccc2c34)[C@@]2(CCC/C(=C\c3ccc(Cl)c(Br)c3)C2=O)[C@H]1c1ccc(Cl)c(Br)c1 (stereo not given in full),Activity,KGN [1],inactive
CN1C[C@H](c2ccccc2)[C@]2(CN(C(=O)OC(C)(C)C)C/C(=C\c3ccccc3)C2=O)[C@]12C(=O)Nc1ccc(Cl)cc12,Activity,[2],Non-Toxic
same,Activity,[3],Non-Toxic
same,Activity,NRK,Non-Toxic
CC1N[C@@]2(C(=O)c3cccc4cccc2c34)[C@@]2(CCC/C(=C\c3ccc(F)cc3)C2=O)[C@H]1c1ccc(F)cc1 (stereo not given in full),Activity,KGN [1],Active
same,Activity,KGN [4],Active
O=C1c2cccc3cccc(c23)[C@]12NC(Cc1ccccc1)[C@H](c1ccccc1)[C@]21CCC/C(=C\c2ccccc2)C1=O (stereo not given in full),Activity,KGN [1],Active
CN1C[C@H](c2ccccc2)[C@H](C(=O)/C=C/c2ccccc2)[C@]12C(=O)Nc1ccccc12,Activity,[2],Toxic
same,Activity,[3],Toxic
same,Activity,NRK,Toxic
CN1C[C@H](c2ccccc2)[C@H](C(=O)/C=C/c2ccccc2)[C@]12C(=O)Nc1ccc(F)cc12,Activity,[2],Toxic
same,Activity,[3],Toxic
same,Activity,NRK,Toxic
CC1N[C@@]2(C(=O)c3cccc4cccc2c34)[C@@]2(CCC/C(=C\c3ccc(O)cc3)C2=O)[C@H]1c1ccc(O)cc1 (stereo not given in full),Activity,KGN [1],inactive
CN1C[C@H](c2ccccc2)[C@]2(CCC/C(=C\c3ccccc3)C2=O)[C@]12C(=O)Nc1ccc(F)cc12,Activity,[2],Non-Toxic
same,Activity,[3],Non-Toxic
same,Activity,NRK,Non-Toxic
COc1ccc(/C=C2\CCC[C@@]3(C2=O)[C@@H](c2ccc(OC)cc2)C(C)N[C@@]32C(=O)c3cccc4cccc2c34)cc1 (stereo not given in full),Activity,KGN [1],inactive
same,Activity,KGN [4],Active
CC1N[C@@]2(C(=O)c3cccc4cccc2c34)[C@@]2(CCC/C(=C\N3CCOCC3)C2=O)[C@H]1N1CCOCC1 (stereo not given in full),Activity,KGN [1],Active
CC1N[C@@]2(C(=O)c3cccc4cccc2c34)[C@@]2(CCC/C(=C\c3ccc(Cl)cc3Cl)C2=O)[C@H]1c1ccc(Cl)cc1Cl (stereo not given in full),Activity,KGN [1],inactive
O=C1c2cccc3cccc(c23)[C@]12NC(CO)[C@H](c1ccccc1)[C@]21CCC/C(=C\c2ccccc2)C1=O (stereo not given in full),Activity,KGN [1],Active
CC(C)CC1N[C@@]2(C(=O)c3cccc4cccc2c34)[C@@]2(CCC/C(=C\c3ccccc3)C2=O)[C@H]1c1ccccc1 (stereo not given in full),Activity,KGN [1],inactive
CC1N[C@@]2(C(=O)c3cccc4cccc2c34)[C@@]2(CCC/C(=C\c3ccc(Cl)c(Cl)c3)C2=O)[C@H]1c1ccc(Cl)c(Cl)c1 (stereo not given in full),Activity,KGN [1],inactive
CN1C[C@H](c2ccccc2)[C@]2(COC/C(=C\c3ccccc3)C2=O)[C@]12C(=O)Nc1ccc(Cl)cc12,Activity,[2],Non-Toxic
same,Activity,[3],Non-Toxic
same,Activity,NRK,Non-Toxic
CCOc1ccc(/C=C2\CCC[C@@]3(C2=O)[C@@H](c2ccc(OCC)cc2)C(C)N[C@@]32C(=O)c3cccc4cccc2c34)cc1 (stereo not given in full),Activity,KGN [1],inactive
CC1N[C@@]2(C(=O)c3cccc4cccc2c34)[C@@]2(CCC/C(=C\c3ccccc3Cl)C2=O)[C@H]1c1ccccc1Cl (stereo not given in full),Activity,KGN [1],Active
CCOc1ccc(/C=C2\CCC[C@@]3(C2=O)[C@@H](c2ccc(OCC)c(OCC)c2)C(C)N[C@@]32C(=O)c3cccc4cccc2c34)cc1OCC (stereo not given in full),Activity,KGN [1],inactive
COc1ccc(/C=C2\CCC[C@@]3(C2=O)[C@@H](c2ccc(OC)c(O)c2)C(C)N[C@@]32C(=O)c3cccc4cccc2c34)cc1O (stereo not given in full),Activity,KGN [1],inactive
CC1N[C@@]2(C(=O)c3cccc4cccc2c34)[C@@]2(CCC/C(=C\c3cc(Br)cs3)C2=O)[C@H]1c1cc(Br)cs1 (stereo not given in full),Activity,KGN [1],Active
CC1N[C@@]2(C(=O)c3cccc4cccc2c34)[C@@]2(CCC/C(=C\c3ccc(Br)cc3)C2=O)[C@H]1c1ccc(Br)cc1 (stereo not given in full),Activity,KGN [1],Active
NC(=O)CCC1N[C@@]2(C(=O)c3cccc4cccc2c34)[C@@]2(CCC/C(=C\c3ccccc3)C2=O)[C@H]1c1ccccc1 (stereo not given in full),Activity,KGN [1],inactive
COc1cc(/C=C2\CCC[C@@]3(C2=O)[C@@H](c2cc(OC)cc(OC)c2)C(C)N[C@@]32C(=O)c3cccc4cccc2c34)cc(OC)c1 (stereo not given in full),Activity,KGN [1],inactive
same,Activity,KGN [4],Active
CN1C[C@H](c2ccccc2)[C@]2(CCC/C(=C\c3ccccc3)C2=O)[C@]12C(=O)Nc1ccc(Cl)cc12,Activity,[2],Non-Toxic
same,Activity,[3],Non-Toxic
same,Activity,NRK,Non-Toxic
CN1C[C@H](c2ccccc2)[C@]2(COC/C(=C\c3ccccc3)C2=O)[C@]12C(=O)Nc1ccc(F)cc12,Activity,[2],Non-Toxic
same,Activity,[3],Non-Toxic
same,Activity,NRK,Non-Toxic
CN1C[C@H](c2ccccc2)[C@]2(COC/C(=C\c3ccccc3)C2=O)[C@]12C(=O)Nc1ccccc12,Activity,[2],Non-Toxic
same,Activity,[3],Non-Toxic
same,Activity,NRK,Non-Toxic
COc1ccccc1/C=C1\CCC[C@@]2(C1=O)[C@@H](c1ccccc1OC)C(C)N[C@@]21C(=O)c2cccc3cccc1c23 (stereo not given in full),Activity,KGN [1],inactive
CC1N[C@@]2(C(=O)c3cccc4cccc2c34)[C@@]2(CCC/C(=C\c3ccc(Br)o3)C2=O)[C@H]1c1ccc(Br)o1 (stereo not given in full),Activity,KGN [1],Active
CC1N[C@@]2(C(=O)c3cccc4cccc2c34)[C@@]2(CCC/C(=C\c3cc(F)cc(F)c3)C2=O)[C@H]1c1cc(F)cc(F)c1 (stereo not given in full),Activity,KGN [1],inactive
CC1N[C@@]2(C(=O)c3cccc4cccc2c34)[C@@]2(CCC/C(=C\c3ccc(Cl)cc3)C2=O)[C@H]1c1ccc(Cl)cc1 (stereo not given in full),Activity,KGN [1],Active
CSCCC1N[C@@]2(C(=O)c3cccc4cccc2c34)[C@@]2(CCC/C(=C\c3ccccc3)C2=O)[C@H]1c1ccccc1 (stereo not given in full),Activity,KGN [1],inactive
CC(O)C1N[C@@]2(C(=O)c3cccc4cccc2c34)[C@@]2(CCC/C(=C\c3ccccc3)C2=O)[C@H]1c1ccccc1 (stereo not given in full),Activity,KGN [1],Active
